The assay in a line: multiple time-intensity profiling (mTIP) of astringency, trained panel. The assay is classed as in vivo. The settings on record: 750 mg/kg EGCG + 125 mg/kg ascorbic acid; for Reduction (%) of astringency: 300 μg/kg Frescolat ML vs without; for Astringency with Frescolat ML: 300 μg/kg Frescolat ML. How it is done:
In order to evaluate different attributes of a sample simultaneously over a particular period of time, the method of so-called “multiple time-intensity profiling” (mITP) was used. This descriptive method combines the advantages of the “dual-attribute time-intensity” (DATI) method, in which the intensities of two descriptors can be plotted on a two-dimensional plane, and the “time-intensity profiling” (TIP) method, in which more than two descriptors are evaluated in succession over time. In each mTIP test, trained panellists (n=15) are asked to take 2 mouthfuls (each 5 ml) of the sample to be evaluated, to wet the entire oral cavity therewith, and then to spit the sample out again. […] A parallel evaluation of more than two attributes is thus possible. The intensities are read after the first 10 seconds and then every 20 seconds over a period of 70 seconds. The data produced are analysed by means of Compusense® five and represented graphically as a time-intensity curve. In order to show the astringency-masking effect of L-lactic acid L-menthyl ester (Frescolat ML), the panel was trained inter alia with an aqueous test solution comprising 750 mg/kg of epigallocatechin gallate and 125 mg/kg of ascorbic acid. The panellists were asked to evaluate the test solution in respect of its bitterness and astringency using the above-described method. In a subsequent test, the two descriptors were evaluated on the one hand for the above-described test solution and on the other hand for the test solution plus 300 μg/kg of Frescolat ML. The results of both time-intensity curves were evaluated statistically and compared with one another in order to determine an astringency-masking effect of Frescolat® ML. For the significance calculation, the Student t-test, duplicated with paired random samples, was used.

The source of these data is patent US9386787B2, “Preparations for oral consumption” (Symrise AG, priority 2012, dated 2016).

Each structure is given as a SMILES string. Marks after values point to notes of the source that are not given here.

Regarding `CC(C)[C@@H]1CC[C@@H](C)C[C@H]1OC(=O)[C@H](C)O` [Frescolat ML, L-lactic acid L-menthyl ester], the “Reduction (%) of astringency” value is listed as −0.49% (time 0 sec); −14.29% (time 10 sec); −20.58* % (time 30 sec, significant (p < 0.1)); −22.24* % (time 50 sec, significant (p < 0.1)); −17.82% (time 70 sec). The “Astringency with Frescolat ML” value (time 0 sec) is recorded as 4.81; the “Astringency with Frescolat ML” value (time 10 sec) stood at 4.11; the “Astringency with Frescolat ML” value (time 30 sec) is given as 3.38; the “Astringency with Frescolat ML” value (time 50 sec) was 2.58; the “Astringency with Frescolat ML” value (time 70 sec) came to 2.04.
